{"source": "paper PMC10609081", "about": "“In Vivo Trafficking of the Anticancer Drug Tris(8-Quinolinolato) Gallium (III) (KP46) by Gallium-68/67 PET/SPECT Imaging” (Molecules, 2023)", "key": {"[1]": {"assay": "PET imaging and ex vivo biodistribution 4 h after intravenous injection, NSG mice bearing A375 xenografts (groups A, B)", "format": "in vivo", "conditions": "i.v., tracer level", "experimental": "All animal experiments were performed in accordance with the Animals (Scientific Procedures) Act, 1986, with protocols approved by the Animal Welfare and Ethical Review Body for King’s College London under project and personal licences approved by the UK Home Office. Tumour xenograft studies were performed on female NSG mice or female athymic nude mice after injecting them subcutaneously in the right shoulder with 2.5 × 10^6 A375 cells in 100 µL of PBS. All in vivo studies were conducted between 14 and 24 days after inoculation, with tumour volumes between 100 mm^3 and 580 mm^3 (see Supplementary Materials, Figure S11).\nIntravenous [^68Ga]gallium acetate and [^68Ga]KP46: NSG mice bearing A375 xenografts were fasted for 12–14 h before the start of the experiment. Mice were anaesthetised with isoflurane and injected with tracer level [^68Ga]gallium acetate (group A, n = 5) or [^68Ga]KP46 (group B, n = 5) (13–18 MBq, <200 μL) via the tail vein. […] The organs were harvested, weighed, and gamma counted. […]\nPET/CT images were acquired with a nanoScan® PET/CT (Mediso Medical Imaging Systems, Budapest, Hungary) scanner operating in list mode using a 400–600 keV energy window and a coincidence window of 1:3. […] The data were then visualised and quantified using VivoQuant^© v.2.50 (InviCro, Boston, MA, USA) software. […] Images were coregistered and analysed using VivoQuant v2.50 (InviCro, Needham, MA, USA)."}, "[2]": {"assay": "Ex vivo biodistribution 2 h after intravenous injection, nu/nu mice bearing A375 xenografts", "format": "in vivo", "conditions": "i.v., tracer level", "experimental": "Figure S8. Ex vivo biodistribution of [ Ga]KP46 (tracer level) in nu/nu mice bearing A375 xenografts at two hours post i.v. injection via tail vein. […] Values are […]\nexpressed as mean ± SD (n = 3). (See below for methods)\nMethodology for ex vivo biodistribution 2 h after intravenous injection of [68Ga]KP46 Mice were intravenously injected with tracer level [68Ga]KP46 and culled two hours post injection for organ harvesting and gamma counting. Consistent with the data shown in the main manuscript for 4 […]\n[68Ga]KP46. Activity was also observed in the kidneys (30%ID/g for both kidneys) and urine, indicating excretion through urinary system. Significant activity was also seen in the lungs, heart, and small intestine (14.3 ± 0.6, 12.6 ± 1.7 and 12 ± 2.6 %ID/g, respectively), with minimal activity accumulating in the tumour (3.4 ± 0.4%ID/g) (Figure S8). […]"}, "[3]": {"assay": "Octanol extraction of serum, urine and gut contents after oral radiolabelled KP46 (speciation)", "format": "in vivo, mice", "conditions": "4 h", "experimental": "Serum and urine from the “tracer level” group (E) were subjected to octanol extraction 24 h postadministration to determine the fraction of ^67Ga that may have survived in the form of [^67Ga]KP46 after absorption from the gut.\nOral [^68/67Ga]KP46: The protocol for oral administration experiments reported here was devised on the basis of pilot experiments described in Supplementary Materials (Figure S12). For short-term (up to 4 h) studies with ^68Ga, awake (nonanaesthetised, to avoid suppressive effects of anaesthesia on digestive tract activity) mice that had been fasted for up to 14 h were given [^68Ga]KP46 (5–13 MBq) (group C, “tracer”, n = 3) or [^68Ga]KP46 and KP46 (5–8.5 MBq) (group D, “bulk”, n = 3) by oral gavage. The dose given orally to group D animals, prepared as described above, was 0.4 μmol in 400 μL, molar activity ca. 25 MBq/μmol. The mice were fasted for three hours before being anaesthetised and PET/CT scanned dynamically for one hour (see below for scanning protocol). After scanning, mice in both groups were culled by neck dislocation while still anaesthetised four hours post-oral administration for organ harvesting and gamma counting. Samples of blood, urine and contents of stomach, small intestine and large intestine (the organs/tissue with measurable activity; tumours were not included as they were insufficiently radioactive) from the mice in group C were used for octanol extraction (shake-flask method) to separate water-soluble (released) and lipid-soluble (intact KP46) ^68Ga. Serum samples were prepared by placing blood samples in a serum separator tube (brand VS367954, Fisher Scientific Ltd., Loughborough, UK) and centrifuging at 3000 rpm for 10 min. Serum (200–300 µL) and urine samples (150–180 µL, taken from the excised bladders) were directly added to Eppendorf tubes containing a pre-equilibrated mixture of octanol (500 µL) and water (500 µL). The tubes were vortexed for two minutes on a Multi Vortex Mixer V-32 (Grant Bio). After separation of layers, a sample of 400 µL from each layer was transferred to fresh Eppendorf tubes and analysed with a gamma counter. Stomach content (72–77 mg), small intestine content (35–88 mg), and large intestine content (86–100 mg) samples from each mouse were analysed similarly by adding them directly to Eppendorf tubes containing a pre-equilibrated mixture of octanol (500 µL) and water (500 µL) before vortexing and centrifuging at 10,000 rpm for 10 min at 4 °C. From each layer, 430 µL was transferred to fresh Eppendorf tubes and analysed with a gamma counter; the solid residues were also counted. Tissues from mice in group D were used after radioactive decay for measurements of nonradioactive ^69Ga content."}, "[4]": {"conditions": "after removal of solids, octanol extraction, group C"}, "[5]": {"conditions": "not extracted into octanol or water, oral tracer (group C)"}, "[6]": {"conditions": "octanol extraction, oral tracer (group C)"}}, "data": [{"compound": "[68Ga+3].[O-]c1cccc2cccnc12.[O-]c1cccc2cccnc12.[O-]c1cccc2cccnc12", "note": "[[^68Ga]KP46]", "values": [{"measurement": "tumour uptake, ex vivo biodistribution", "setting": "[1]; 4 h, n = 5", "result": "2.6 ± 0.9", "unit": "%ID/g"}, {"measurement": "tumour uptake of 68Ga by PET/CT", "setting": "[1]; by four hours", "result": "no visible tumour accumulation"}, {"measurement": "activity in kidneys, ex vivo", "setting": "[2]; both kidneys", "result": 30, "unit": "%ID/g"}, {"measurement": "activity in heart, ex vivo", "setting": "[2]; n = 3", "result": "12.6 ± 1.7", "unit": "%ID/g"}, {"measurement": "activity in liver, ex vivo", "setting": "[2]; n = 3", "result": "31.4 ± 3.8", "unit": "%ID/g"}, {"measurement": "activity in lungs, ex vivo", "setting": "[2]; n = 3", "result": "14.3 ± 0.6", "unit": "%ID/g"}, {"measurement": "activity in small intestine, ex vivo", "setting": "[2]; n = 3", "result": "12 ± 2.6", "unit": "%ID/g"}, {"measurement": "activity in tumour, ex vivo", "setting": "[2]; n = 3", "result": "3.4 ± 0.4", "unit": "%ID/g"}, {"measurement": "soluble radioactivity in aqueous phase, large intestine", "setting": "[3]; [4]", "result": "95.5% ± 4.2%"}, {"measurement": "soluble radioactivity in aqueous phase, small intestine", "setting": "[3]; [4]", "result": "95% ± 2.5%"}, {"measurement": "soluble radioactivity in aqueous phase, stomach", "setting": "[3]; [4]", "result": "76.8% ± 8.7%"}, {"measurement": "activity present in solids, large intestine contents", "setting": "[3]; [5]", "result": "83.7% ± 8.8%"}, {"measurement": "activity present in solids, small intestine contents", "setting": "[3]; [5]", "result": "80.7% ± 19.4%"}, {"measurement": "activity present in solids, stomach contents", "setting": "[3]; [5]", "result": "82.9% ± 10.7%"}, {"measurement": "68Ga in aqueous phase, serum", "setting": "[3]; [6]", "result": "98.6% ± 1.5%"}, {"measurement": "68Ga in aqueous phase, urine", "setting": "[3]; [6]", "result": "98.2% ± 1.7%"}]}]}
